{
  "source": "patent US7375122B2",
  "about": "“Compounds useful as pesticides” (Dow AgroSciences LLC, priority 2002, dated 2008)",
  "format_in_all_cases": "in vivo",
  "key": {"[1]": {"test_system": "Cotton Aphid (Aphis gossypll)", "assay": "Testing with Cotton Aphid, track sprayer application on infested cotton plants", "details": "for LC90: cotton aphid on cotton plants, track sprayer approx. 200 L/ha, count of living non-winged aphids", "method": "Alcala cotton plants were grown from seed in 7-cm pots under greenhouse conditions until they reached 35 to 40 cm in height; approximately four weeks old with 5 to 6 true leaves. The plants were then stripped of all foliage except for the two uppermost true leaves. Two days prior to application, heavily infested leaf sections from a cotton aphid colony were cut and placed on each untreated leaf surface. Over the two days, all stages of the aphids abandon the excised host material and migrate to the succulent growth, predominantly the lower surface of the leaves. Plants were checked prior to application for even infestation levels. Treatments consisted of 4 replicates (plants) each with 2 leaves per plant.\nFormulation of technical compound was in a solvent solution. For the top rate of each compound, 20 milligrams of technical material was dissolved in 2 milliliters (ml) of a 9:1 mixture of acetone:ethanol solvent. Once dissolved, an additional 18-ml of the solvent mix was added to yield a 1 mg/ml spray solution. Additional rates were then prepared by serial dilution.\nApplication was made by an automated tracksprayer (RC-Insecticide #1, Serial MS-9′-002, MANDEL Scientific Company Ltd.) equipped with a single TX6 SS hollow cone nozzle to simulate an over-the-top application by a boom sprayer. Spray pressure was set at 50 PSI, and the nozzle head was set approximately 40 cm above the leaf surface (depending on the leaf position it ranged from 35-45 cm). Track velocity and all other settings were calibrated to deliver approximately 200 L/ha. After application and drying, the plants were transferred and kept in controlled environment until assessment.\nAssessment of compound efficacy is evaluated by counting all living non-winged stage aphids infesting each replicate using a dissecting microscope."}, "[2]": {"test_system": "Sweetpotato Whitefly, Bemisia tabaci", "assay": "Testing with Sweetpotato Whitefly, track sprayer application on egg-infested cotton plants", "details": "for LC90: sweetpotato whitefly on cotton plants, track sprayer, assessment at 13 days after application", "method": "Greenhouse-grown cotton plants (ca. five weeks old, grown in 7×7 cm pots containing ca. 231 cm^3 of potting soil mixture) were prepared for whitefly infestation by removing all foliage except the first or second pair of fully expanded true leaves. These plants are then moved into the whitefly colony room of the insectary (temperature maintained at 27° C.), where they are surrounded by cotton or velvetleaf plants infested with all life stages of B. tabaci. Initial movement of B. tabaci adults onto the prepared cotton plants is encouraged by gently shaking the foliage of the surrounding infested cotton and velvetleaf foliage using a 1.5-meter long willow branch. The prepared plants are left in place within the whitefly colony, where they are exposed to adult female B. tabaci oviposition for ca. 48 hours.\nAt the end of the oviposition exposure period, adult whiteflies are dislodged from the prepared plants by passing compressed air just above the leaves while the leaves are gently disturbed by hand for ca. 15 seconds. The prepared plants, which are now infested with eggs of B. tabaci, are removed from the insectary and any remaining adults are removed from the foliage with a hand-held vacuum fitted with a cage to trap insects. Infested plants are then selected at random and arranged into treatment groups of two or three plants each. Leaves of plants to receive different treatments are separated by a distance of at least 5 cm.\nCompounds are applied within 24 hours of removing cotton plants from exposure to oviposition within the B. tabaci colony. Immediately after application, plants are moved to a holding room with a temperature of 30° C. and relative humidity of ca. 60%. Compound efficacy was observed by an assessment at 13 days after application. At this evaluation time, whitefly nymphs that have successfully developed to the third and fourth nymphal stadia can be easily seen on the underside of each cotton leaf with the aid of an illuminated magnifying lens (equipped with a circular fluorescent tube). […]"}, "[3]": {"test_system": "Cat Flea (Cntenocephalides felis)", "assay": "Testing with Cat Flea, treated media infested with eggs", "details": "eggs held five weeks, adult fleas counted", "method": "Media is prepared by mixing 1 part dried bovine blood, 4 parts ground dog food pellets, and 95 parts clean sand. Compounds are dissolved in acetone and further diluted in acetone to yield the required range of concentrations. The acetone solutions are applied to measured amounts of media in small dishes. Final concentrations are expressed as micrograms of compound per gram of media. After the acetone has dried, the treated media is dispensed into small glass vials and infested with 5 to 10 cat flea (Cntenocephalides fells) eggs. The vials are loosely capped and held under controlled conditions for five weeks. Activity is assessed based on the average number of adult cat fleas present in the treated vials compared to the average number of adult cat fleas in the media"}},
  "data": [
    {"smiles": "O=[N+]([O-])/C=C1\\NCCN1Cc1ccc(Cl)nc1", "note": "[Comparative Compound A]", "values": [
      {"measurement": "LC90", "setting": "[1]", "value": 9.1, "unit": "grams per hectare"},
      {"measurement": "times more Comparative Compound A needed to reach the LC90 level than Compound Three", "setting": "[1]; cotton aphid, ratio of LC90 values", "value": "~11.7", "unit": "times"},
      {"measurement": "LC90", "setting": "[2]", "value": 6.66, "unit": "grams per hectare"},
      {"measurement": "times more Comparative Compound A needed to reach the LC90 level than Compound Three", "setting": "[2]; sweetpotato whitefly, ratio of LC90 values", "value": "~2.7", "unit": "times"}
    ]},
    {"smiles": "CN/C(=C(/C=O)[N+](=O)[O-])N(C)Cc1ccc(Cl)nc1", "note": "[Compound One]", "values": [
      {"measurement": "control of cat fleas", "setting": "[3]; 0.1 μg/g rate in media", "value": 100, "unit": "%"}
    ]},
    {"smiles": "O=C/C(=C1/NCCN1Cc1ccc(Cl)nc1)[N+](=O)[O-]", "note": "[Compound Three]", "values": [
      {"measurement": "LC90", "setting": "[1]", "value": "less than 0.78 grams per hectare"},
      {"measurement": "control of cat fleas", "setting": "[3]; 0.01 μg/g rate in media", "value": 81, "unit": "%"},
      {"measurement": "control of cat fleas", "setting": "[3]; 0.1 μg/g rate in media", "value": 96, "unit": "%"},
      {"measurement": "LC90", "setting": "[2]", "value": "less than 2.52 grams per hectare"}
    ]}
  ]
}
